Values quoted from earlier work as cited in publication PMC6376154 (International Journal for Parasitology: Drugs and Drug …, 2019).
Like-named read-outs stand apart in the source and are kept apart here.

System: P. falciparum 3D7 asexual blood stage
Details: cited from earlier work
[1] = MMV Malaria Box data sheet (supplement mmc2.xls), ref MMV data sheet
[2] = MMV Malaria Box data sheet (supplement mmc2.xls), ref MMV data sheet, read-out: EC50_nM
[3] = value(s) per source (GSK, GNF, StJude), separated by semicolon, ref ChEMBL-NTD, read-out: CHEMBL EC50
[4] = ChEMBL-NTD value per source (GNF, GSK, StJude), several values in a cell follow the order of the sources, read-out: CHEMBL EC50
[5] = MMV Malaria Box data sheet, ref MMV data sheets
[6] = MMV Malaria Box data sheet, ref MMV data sheets, read-out: EC50_nM
[7] = source GSK, ref ChEMBL_NTD, read-out: CHEMBL EC50
[8] = MMV Malaria Box sheet, ref MMV data sheets
[9] = MMV Malaria Box sheet, ref MMV data sheets, read-out: EC50_nM
[10] = source GNF, ref ChEMBL_NTD, read-out: CHEMBL EC50

In the case of `O=C(NC1CCN(Cc2ccccc2)CC1)c1cc(-c2ccncc2)nc2ccc(Cl)cc12` [MMV020275], the “percent_inh @ 5 uM” value [1] is listed as 92%, the EC50 [2] is listed as 1.02 µM and the EC50 [3] is listed as 0.92 µM.

In the case of `COc1ccc(-c2cn3c(C(=O)Nc4ccccc4Cl)c(-c4ccccc4)c4c3n2CCCC4)cc1` [MMV020403], the EC50 [4] is listed as 0.792 µM.

For `CCn1c(CN2CCN(Cc3ccccc3)CC2)nc2cc(NC(=O)c3cccs3)ccc21` [MMV020439], the “percent_inh @ 5 uM” value [5] is listed as 97%, the EC50 [6] is listed as 0.512 µM and the EC50 [7] is listed as 0.402 µM.

In the case of `O=C(NC1CCN(Cc2ccccc2)CC1)c1cc(-c2cccnc2)nc2ccc(Cl)cc12` [MMV020490], the “percent_inh @ 5 uM” value [8] is listed as 91%, the EC50 [9] is listed as 1.01 µM and the EC50 [7] is listed as 0.759 µM.

In the case of `CC1CN(C(=O)c2sc3ccccc3c2Cl)CC(C)O1` (stereo not drawn) [MMV020492], the “percent_inh @ 5 uM” value [5] is listed as 95%, the EC50 [6] is listed as 0.0255 µM and the EC50 [7] is listed as 0.0879 µM.

For `CNCCCNc1ccnc2cc(Cl)ccc12` [MMV020500], the “percent_inh @ 5 uM” value [5] is listed as 98%, the EC50 [6] is listed as 0.0822 µM and the EC50 [7] is listed as 0.0624 µM.

For `CN(C)CCCNCc1ccc(-c2ccc(F)c(Cl)c2)o1` [MMV020505], the “percent_inh @ 5 uM” value [8] is listed as 96%, the EC50 [9] is listed as 0.876 µM and the EC50 [7] is listed as 0.802 µM.

In the case of `CCN1CCN(Cc2ccc(NC(=O)c3cc4ccc5cccnc5c4[nH]3)cc2)CC1` [MMV020548], the “percent_inh @ 5 uM” value [5] is listed as 70%, the EC50 [6] is listed as 0.361 µM and the EC50 [7] is listed as 0.848 µM.

For `CC1CCN(Cc2ccc(NC(=O)c3cc4ccc5cccnc5c4[nH]3)cc2)CC1` [MMV020549], the “percent_inh @ 5 uM” value [5] is listed as 97%, the EC50 [6] is listed as 0.274 µM and the EC50 [7] is listed as 0.779 µM.

For `O=C(Nc1ccc(CN2CCOCC2)cc1)c1ccc(-c2cc(Cl)ccc2Cl)o1` [MMV020651], the “percent_inh @ 5 uM” value [8] is listed as 97%, the EC50 [9] is listed as 1.95 µM and the EC50 [7] is listed as 0.613 µM.

In the case of `CCC(O)c1ccc(Br)cc1NC(=O)c1cccc(Cl)c1` (stereo not drawn) [MMV020654], the “percent_inh @ 5 uM” value [1] is given as 97%, the EC50 [2] is given as 0.64 µM and the EC50 [3] is given as 1.02 µM.

In the case of `CC(=O)Nc1nnc(SCc2c(C)cc(C(C)(C)C)cc2C)s1` [MMV020700], the “percent_inh @ 5 uM” value [1] is listed as 96%, the EC50 [2] is listed as 0.871 µM and the EC50 [3] is listed as 0.704 µM.

For `COc1cc(-c2nc(-c3ccccc3)c(-c3ccccc3)[nH]2)cc(OC)c1O` [MMV020750], the EC50 [4] is given as 0.774 µM.

In the case of `Oc1ccccc1CNCC12CC3CC(CC(C3)C1)C2` [MMV020788], the “percent_inh @ 5 uM” value [5] is given as 96%, the EC50 [6] is given as 0.0226 µM and the EC50 [7] is given as 0.279 µM.

For `COc1ccc(Br)cc1C1Nc2ccc3ccccc3c2C2=C1C(=O)CC(c1ccccc1)C2` (stereo not drawn) [MMV020885], the “percent_inh @ 5 uM” value [5] is listed as 95%, the EC50 [6] is listed as 0.18 µM and the EC50 [7] is listed as 0.59 µM.

For `Cc1ccc(-c2nc3ccccc3o2)cc1NCc1cc(Cc2ccccc2)ccc1O` [MMV020912], the EC50 [4] is listed as 1.03 µM.

For `CCC(=O)Nc1nnc(Cc2ccc(OC)c(OC)c2)s1` [MMV020942], the “percent_inh @ 5 uM” value [8] is given as 47% and the EC50 [7] is given as 0.91 µM.

In the case of `COc1cc(SC)ccc1C(=O)N1CCCC(C)C1` (stereo not drawn) [MMV056726], the “percent_inh @ 2 uM” value (2 uM, MMV Malaria Box data sheet (supplement mmc2.xls), ref MMV data sheet) is listed as 45%, the EC50 [2] is listed as 4 µM and the EC50 [3] is listed as 9.81 µM.

For `CN(C)c1ccc(N=Cc2ccc(N3CCOCC3)cc2)cc1` [MMV073843], the EC50 [4] is listed as 0.175 µM.

In the case of `CCOc1ccc(C2N(C)c3ccccc3N2C)cc1` [MMV075490], the “percent_inh @ 5 uM” value [1] is listed as 72% and the EC50 [2] is listed as 0.941 µM.

In the case of `COc1cc2c(cc1OC)C1=NNC(=O)C1=NC(C)(C)C2` [MMV084940], the EC50 [9] is listed as 1.04 µM and the EC50 [10] is listed as 1.58 µM.

In the case of `COc1ccccc1N=C1C(=O)c2ccccc2C(O)=C1N1CCCCC1` [MMV085203], the “percent_inh @ 5 uM” value [5] is given as 98%, the EC50 [6] is given as 0.0053 µM and the EC50 [10] is given as 0.028 µM.

For `CCOc1ccc(-n2cc(-c3ccccc3)c3c(SCc4cc(C)ccc4C)ncnc32)cc1` [MMV085471], the “percent_inh @ 5 uM” value [8] is listed as 97%, the EC50 [9] is listed as 1.71 µM and the EC50 [10] is listed as 2.01 µM.

In the case of `CCCCCC(=O)N1c2ccccc2N=C2CC(c3ccc(OC)c(OC)c3)CC(O)=C2C1c1ccc(C(F)(F)F)cc1` (stereo not drawn) [MMV085583], the “percent_inh @ 5 uM” value [5] is listed as 100%, the EC50 [6] is listed as 0.237 µM and the EC50 [10] is listed as 0.107 µM.

In the case of `Cc1ccc(C(=O)c2oc3ccc4c(C)cc(=O)oc4c3c2C)cc1` [MMV086103], the EC50 [4] is listed as 1.03 µM.

For `COc1cc(CNCCc2ccc(Cl)cc2)cc(OC)c1O` [MMV128432], the EC50 [4] is given as 6.89 µM.

In the case of `CC(C)(C)c1ccc(C(=O)Nc2nc3ccccc3s2)cc1` [MMV142383], the “percent_inh @ 5 uM” value [1] is listed as 81% and the EC50 [3] is listed as 15 µM.

In the case of `COc1ccc2nc(C)cc(Nc3ccccc3O)c2c1` [MMV274073], the EC50 [2] is given as 0.686 µM.
